Molecular target: T1, TRPV3 (G573C) (Homo sapiens, UniProt Q8NET8, G573C)
T1 construct: host or cells: HEK 293T (transient transfection, pEGFP-N1 co-transfected as a marker)
T1 sequence (Q8NET8 1-790 G573C): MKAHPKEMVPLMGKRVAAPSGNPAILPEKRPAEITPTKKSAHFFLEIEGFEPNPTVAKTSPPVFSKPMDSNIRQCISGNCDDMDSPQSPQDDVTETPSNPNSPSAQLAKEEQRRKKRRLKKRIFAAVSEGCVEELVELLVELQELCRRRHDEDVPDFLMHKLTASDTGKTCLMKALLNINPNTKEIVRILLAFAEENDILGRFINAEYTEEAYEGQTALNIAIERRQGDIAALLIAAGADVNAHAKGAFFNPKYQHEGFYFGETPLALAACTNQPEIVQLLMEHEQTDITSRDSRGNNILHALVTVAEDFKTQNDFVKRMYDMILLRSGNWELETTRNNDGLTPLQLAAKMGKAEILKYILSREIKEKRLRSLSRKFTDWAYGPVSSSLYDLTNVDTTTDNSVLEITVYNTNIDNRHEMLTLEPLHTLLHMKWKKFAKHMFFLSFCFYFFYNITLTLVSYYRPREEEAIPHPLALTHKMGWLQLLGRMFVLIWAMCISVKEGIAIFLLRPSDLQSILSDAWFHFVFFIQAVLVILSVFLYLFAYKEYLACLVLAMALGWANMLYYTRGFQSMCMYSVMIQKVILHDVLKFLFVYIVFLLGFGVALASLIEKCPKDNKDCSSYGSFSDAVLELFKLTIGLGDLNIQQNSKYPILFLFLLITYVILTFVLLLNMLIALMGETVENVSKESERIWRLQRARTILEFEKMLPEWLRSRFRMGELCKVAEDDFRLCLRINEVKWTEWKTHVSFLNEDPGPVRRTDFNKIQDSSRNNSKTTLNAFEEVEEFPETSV
Test: Whole-cell patch-clamp, spontaneous current of TRPV3 G573C mutant in HEK 293T cells
Type: cell-based
Settings: −100 mV, read-out: IC50, inhibition of spontaneous current of TRPV3 G573C mutant
Description: For electrophysiology recording and calcium measurement, 10 µM 74a (a TRPV3 inhibitor) was added about 6 h after transfection to inhibit channel activities and prevent cell death. First, the electrophysiology activities of the mutations were recorded using a whole-cell patch-clamp. Our data presented spontaneous TRPV3 currents when −100 mV to 100 mV ramp pulses were applied, which dramatically declined with the addition of 1 µM alpha-mangostin (Figure 4A).
Figure 4 Alpha-mangostin inhibited the activity of hyperactive TRPV3 mutant channels and rescued mutation-induced cell death. (A) Alpha-mangostin inhibited the channel current in representative TRPV3 (G573S)- and TRPV3 (G573C)-expressing HEK 293T cells. […] Currents were normalized to the response at −100 mV before adding alpha-mangostin. (C) Alpha-mangostin inhibited TRPV3-mediated intracellular calcium increase in TRPV3 (G573S)-expressing HEK 293T cells. […] The bar graph on the right summarizes the change in the intracellular calcium rise inhibited by alpha-mangostin. […]
In the whole-cell configuration, voltage ramps from −100 to +100 mV over 1 s were applied every 20 s and the holding potential was set at 0 mV. Sampling at 10 kHz and low-pass filtering at 5 kHz (w-c) were applied for all recorded currents. Recorded data were analyzed using Clampfit ver. […]

For `COc1c(O)cc2oc3cc(O)c(CC=C(C)C)c(O)c3c(=O)c2c1CC=C(C)C` [Alpha-mangostin], the IC50 was 1940 ± 400 nM.

— PMC10455244, “Alpha-Mangostin: A Potent Inhibitor of TRPV3 and Pro-Inflammatory Cytokine Secretion in Keratinocytes” (International Journal of Molecular Sciences, 2023)
